Experimental data taken from publication PMC5700336, “The Gastrointestinal Tract Is a Major Source of Echinocandin Drug Resistance in a Murine Model of Candida glabrata Colonization and Systemic Dissemination” (Antimicrobial Agents and Chemotherapy, 2017).

What was measured:
C. glabrata 2001 Δmsh2 [1] = test: Murine C. glabrata GI colonization model: GI/fecal burden under daily treatment; assay type: in vivo, Candida glabrata
Experimental: (§1) Six-week-old female outbred CF-1 immunocompetent mice (Charles River Laboratories) were treated (subcutaneously [s.c.]) with 320 mg/kg of piperacillin-tazobactam (PTZ; 8:1 ratio) beginning on day −2 to clear native intestinal bacterial flora. Daily PTZ treatment was maintained throughout the experiment (see Fig. 3A). On day 0, mice were inoculated via oral gavage with approximately 1.5 × 10^8 CFU of C. glabrata in 100 μl of saline. Mice were colonized with ATCC 2001 (CBS 138), clinical strains from the Perlin Laboratory collection, or mutator strain 2001 Δmsh2 ([19]). Fresh fecal samples were collected throughout the experiment to assess fungal burden in the GI tract. Daily administration of caspofungin (0.5, 5, or 20 mg/kg, i.p.), nikkomycin Z (100 mg/kg, oral) (Sigma), or saline (100 μl i.p.) was initiated on day 3 postinoculation and continued through sacrifice day (typically day 15). Caspofungin-resistant colony frequencies were determined through selection of fecal samples on yeast extract-peptone-dextrose (YPD) plates supplemented with caspofungin (2 μg/ml), PTZ (16 μg/ml), and chloramphenicol (20 μg/ml). The corticosteroid dexamethasone (DMX) was administered twice daily (100 mg/kg, i.p.) for 3 days (days 12 to 14) prior to euthanization (day 15; Fig. 3A). Blood, kidneys, liver, spleen, and the gastrointestinal tract components were collected on day 15 (or earlier where indicated), homogenized, and plated onto YPD plates supplemented with chloramphenicol (75 μg/ml) and ampicillin (50 μg/ml) to determine CFU levels.

C. glabrata 2001 Δmsh2 [2] = test: Systemic breakthrough (blood and organs) after dexamethasone immunosuppression; assay type: in vivo, Candida glabrata; conditions: day 15
Experimental: as §1, with “Blood, kidneys, liver, spleen, and the gastrointestinal tract components were collected on day 15 (or earlier where indicated), homogenized, and plated onto YPD plates supplemented with chloramphenicol (75 μg/ml) and ampicillin (50 μg/ml) to determine CFU levels.” left out

[3] = Single-dose pharmacokinetics in plasma and GI lumen contents; assay type: in vivo, mice; conditions: LC-MS/MS; for large intestine mean Cmax / small intestine mean Cmax: lumen contents, mean of three mice
Experimental: Mice were colonized with ATCC 2001 and then treated (i.p.) once with 5 or 20 mg/kg caspofungin at time zero (2 days postinoculation). Three mice from each treatment group were sacrificed at each time point (0, 1, 2, 4, 8, 16, 24, and 48 h), and blood and small and large intestinal lumen contents (without intestinal walls) were collected. Fecal pellets were also collected from mice at 0, 4, 16, 24, and 48 h prior to sacrifice. Caspofungin levels in plasma and GI compartments were measured by liquid chromatography-tandem mass spectrometry (LC-MS/MS) in electrospray positive-ionization mode (ESI+) on an AB Sciex QTrap 4000 triple-quadrupole mass spectrometer combined with an Agilent 1260 high-performance liquid chromatograph (HPLC) using the Analyst software and multiple-reaction monitoring (MRM) of precursor/product transitions. The MRM transitions used were 547.50/538.40 for caspofungin and 455.4/165.2 for the internal standard verapamil. Chromatography was performed with an Agilent Zorbax SB-C8 column (2.1 by 30 mm; particle size, 3.5 μm) using a reverse-phase gradient elution. One-tenth percent formic acid in Milli-Q deionized water was used for the aqueous mobile phase and 0.1% formic acid in acetonitrile (ACN) for the organic mobile phase. Small and large intestinal contents were homogenized prior to extraction by combining 3 parts PBS buffer to 1 part GI tract contents. One milligram per milliliter dimethyl sulfoxide (DMSO) stock was serially diluted in 50/50 ACN-water to create standard curves and quality control spiking solutions. Twenty microliters of neat spiking solutions was added to 20 μl of drug-free mouse K2EDTA plasma (Bioreclamation) or GI tract homogenate, and extraction was performed by adding 200 μl of acetonitrile-methanol 50/50 protein precipitation solvent containing 10 ng/ml verapamil (Sigma). Extracts were vortexed for 5 min and centrifuged at 4,000 rpm for 5 min. The supernatants were analyzed by LC-MS. Sample analysis was accepted if the concentrations of the quality control samples were within 20% of the nominal concentration.

C. glabrata ATCC 2001 = test: GI yeast burden after a single caspofungin dose; assay type: in vivo, Candida glabrata
[4] = system: C. glabrata Δmsh2 mutant cells; test: In vitro caspofungin-resistant colony frequency after nikkomycin pretreatment; assay type: cell-based, Candida glabrata; conditions: cells incubated with nikkomycin Z for 2 h prior to plating on agar with 2 μg/ml caspofungin
Experimental: FIG 4 Nikkomycin reduces C. glabrata caspofungin resistance and tolerance formation in vitro. (A) Caspofungin-resistant colony frequencies following selection on agar plates containing 2 μg/ml caspofungin. Cells were incubated with the indicated concentrations of nikkomycin Z for 2 h prior to plating. (B) Killing assay with strains grown in the presence or absence of 128 μg/ml nikkomycin Z (Nz) and increasing concentrations of caspofungin. The mean counts from three independent biological experiments ± standard deviations are shown.

[5] = system: C. glabrata wild-type and Δmsh2 cells; test: In vitro killing assay; assay type: cell-based, Candida glabrata; conditions: 128 μg/ml nikkomycin Z, caspofungin 0.016 to 32 μg/ml, RPMI, 37°C, 24 h; three independent experiments
Experimental: Fresh 1-ml RPMI cultures (plus necessary amino acids) of C. glabrata (1 × 10^7 cells) were incubated at 37°C while shaking (165 rpm) for 24 h in 2-fold increasing concentrations (0.016 to 32 μg/ml) of caspofungin and in the presence (128 μg/ml) or absence of nikkomycin Z. After 24 h, 100 μl of the appropriate dilutions for each culture was plated onto YPD plates. CFU were counted 24 h after plating and data represented as the CFU per milliliter that survived at each concentration of drug.

[6] = single i.p. dose, both 5 and 20 mg/kg, lumen contents without intestinal walls, three mice per time point

| SMILES | change in GI burden (C. glabrata 2001 Δmsh2 [1]; caspofungin 0.5 mg/kg i.p. daily) | change in GI burden (C. glabrata 2001 Δmsh2 [1]; caspofungin 5 mg/kg i.p. daily) | decrease in average GI burden (C. glabrata 2001 Δmsh2 [1]; caspofungin 20 mg/kg i.p. daily from day 3, following 5 days of treatment, 10 mice per group) [log] | GI burden after rebound to baseline (C. glabrata 2001 Δmsh2 [1]; caspofungin 20 mg/kg i.p. daily, by day 11) | decrease in fecal burden (C. glabrata 2001 Δmsh2 [1]; following 4 days of 20 mg/kg caspofungin) [log] | average decrease of colonization levels throughout the GI tract (C. glabrata 2001 Δmsh2 [1]; following 4 days of 20 mg/kg caspofungin, one mouse per condition) [log] | bloodstream infection (C. glabrata 2001 Δmsh2 [2]; caspofungin 5 mg/kg i.p. daily) | bloodstream infection (C. glabrata 2001 Δmsh2 [2]; caspofungin 20 mg/kg i.p. daily) | Tmax ([3]; mouse, plasma, ip, single i.p. dose, both 5 and 20 mg/kg, colonized CF-1 mice, three mice per time point, read-out: time of Cmax, plasma) [h] | large intestine mean Cmax ([3]; single i.p. dose 5 mg/kg) [ng/mL] | small intestine mean Cmax ([3]; single i.p. dose 5 mg/kg) [ng/mL] | large intestine mean Cmax ([3]; single i.p. dose 20 mg/kg) [ng/mL] | small intestine mean Cmax ([3]; single i.p. dose 20 mg/kg) [ng/mL] | time of Cmax, large intestine [3, 6] [h] | time of Cmax, small intestine [3, 6] [h] | GI burden levels after single dose (C. glabrata ATCC 2001; single i.p. dose 5 mg/kg) | GI burden levels after single dose (C. glabrata ATCC 2001; single i.p. dose 20 mg/kg) | effect on caspofungin-resistant colony frequency [4] | effect on killing by caspofungin [5] |
| --- | --- | --- | --- | --- | --- | --- | --- | --- | --- | --- | --- | --- | --- | --- | --- | --- | --- | --- | --- |
| CC[C@H](C)C[C@H](C)CCCCCCCCC(=O)N[C@H]1C[C@@H](O)[C@@H](NCCN)NC(=O)[C@@H]2[C@@H](O)CCN2C(=O)[C@H]([C@H](O)CCN)NC(=O)[C@H]([C@H](O)[C@@H](O)c2ccc(O)cc2)NC(=O)[C@@H]2C[C@@H](O)CN2C(=O)[C@H]([C@@H](C)O)NC1=O [caspofungin] | unchanged | unchanged | ~2.5 | ~1 × 10^8 CFU/g of stool | 2.8 | 2.7 | no isolates were recovered from the blood | no isolates were recovered from the blood | 2 | 3800 | 9100 | 36200 | 22200 | 8 | 4 | minimal decrease and faster recovery to baseline | decreased by 16 h and then returned to original baseline levels by 48 h | – | – |
| C[C@@H]([C@H](N)C(=O)N[C@H](C(=O)O)[C@H]1O[C@@H](n2ccc(=O)[nH]c2=O)[C@H](O)[C@@H]1O)[C@H](O)c1ccc(O)cn1 [nikkomycin, nikkomycin Z] | – | – | – | – | – | – | – | – | – | – | – | – | – | – | – | – | – | reduced the frequency of caspofungin-resistant mutants | increased the killing ability of caspofungin |
